Measured values from patent US7232837B2, “Stereoisomers with high affinity for adrenergic receptors” (McNeil-PPC, Inc., priority 1999, dated 2007).

Key:
α2 adrenergic receptors = experiment: Alpha-2 binding, 125iodoclonidine, canine brain (frontal cortex) membranes; set-up: species or system canine (mongrel dogs); settings: canine brain membranes; for IC50: inhibition of specific p-iodoclonidine binding; for Ki: p-iodoclonidine
Procedure: BRAIN ALPHA-2 RECEPTORS: Membranes of mongrel dogs were harvested from the canine frontal cortex and prepared as described for lung except that the final membrane protein concentration was adjusted to 0.5 mg/ml.
ALPHA-2 BINDING ^125IODOCLONIDINE. […] Nonspecific binding was determined in separate incubations in the presence of 10 μM phentolamine. The final concentration of p-iodoclonidine was 44–45 pM in competition studies and between 50 pM and 10 nM in saturation experiments. Bound and free p-^125iodoclonidine were separated and the bound quantified as described above for the ICYP assays. […] BETA-2 BINDING, ^125IODOCYANOPINDOLOL (^125ICYP). […] Nonspecific binding was determined in separate incubations in the presence of 2 μM d,l-propranolol. Each experimental point was determined in triplicate. […] Incubations were terminated as described above for the α1 assays. Filters were placed into polyethylene tubes and the bound ligand was determined by gamma spectrometry (Sano et al., 1993).
All data were analyzed with the aid of microcomputer nonlinear curve fitting programs (PRISM 2.0, Graphpad Software, San Diego Calif.).
The receptors resident in each of the three membrane preparations were evaluated by standard saturation analysis following the addition of increasing concentrations of the appropriate radioligand. […] The radio ligand added for subsequent α2-displacement assays was adjusted to evaluate only the high affinity receptor. Contributions from p-iodoclonidine binding to imidazoline receptors in the α2-displacement assay were evaluated with epinephrine.
The variable, I, is the concentration of tracer added and the variable, Kd, is the equilibrium dissociation constant empirically determined for this receptor population.

Rat = experiment: Dosage which raised mean arterial pressure 10%, rat; assay type: in vivo
Sprague Dawley rats [1] = experiment: Nasal airway pressure in non-histamine-challenged rats; settings: for Mean Decrease in Nasal Airway Pressure: rats, i.v., ± SEM
Sprague Dawley rats [2] = experiment: Nasal airway pressure in histamine-challenged rats
Dog = experiment: Dosage which raised mean arterial pressure 10%, dog; assay type: in vivo

Compound	IC50 (α2 adrenergic receptors) [µM]	Ki (α2 adrenergic receptors) [µM]	Dosage of Enantiomer which raised mean arterial pressure 10%, Rat (Rat) [µg]	Mean Decrease in Nasal Airway Pressure (Sprague Dawley rats [1]; 5% of the dose that increased mean arterial pressure 10%)	Mean Decrease in Nasal Airway Pressure (Sprague Dawley rats [1]; 10% of the dose that increased mean arterial pressure 10%)	Mean Decrease in Nasal Airway Pressure (Sprague Dawley rats [1]; 25% of the dose that increased mean arterial pressure 10%)	Mean Decrease in Nasal Airway Pressure (Sprague Dawley rats [1]; 50% of the dose that increased mean arterial pressure 10%)	nasal airway pressure, Post Drug (Sprague Dawley rats [1]; 100% dose i.v. (jugular vein), non-histamine-challenged rats) [mm H2O]	nasal airway pressure, % Change (Sprague Dawley rats [1]; 100% dose i.v., non-histamine-challenged rats, post drug vs control) [%]	nasal airway pressure, Control (Sprague Dawley rats [1]; before drug, non-histamine-challenged rats) [mm H2O]	nasal airway pressure, Post Drug (Sprague Dawley rats [2]; 100% dose i.v. after histamine challenge) [mm water]	nasal airway pressure, % Change (Sprague Dawley rats [2]; 100% dose i.v. after histamine challenge, post drug vs post histamine) [%]	nasal airway pressure, Post Histamine (Sprague Dawley rats [2]; after intranasal histamine 50 mM, before drug) [mm water]	nasal airway pressure, Control (Sprague Dawley rats [2]; before histamine and drug) [mm water]	Dosage of Enantiomer which raised mean arterial pressure 10%, Dog (Dog) [µg/kg]
(−)-norpseudoephedrine	10	8													
CNC[C@@H](O)c1cccc(O)c1 [(+)-Phenylephrine, (+)-phenylephrine]			24	−4.00 ± 1.2	−2.5 ± 1.0	−4.6 ± 1.4	−10.2 ± 3.9	8 ± 0.3	−12.2 ± 3.1	9 ± 0.4	5.5 ± 0.5	−35.2 ± 2.5	8.7 ± 1.1	6.5 ± 0.4	80
(+)-norpseudoephedrine	5	4													
